One series concerns the target T1, motilin receptors (Oryctolagus cuniculus, UniProt G1T803).
T1 construct: A protein solution was prepared by homogenizing the duodenum isolated from a killed rabbit; from tissue; host or cells: rabbit duodenum, mucosa stripped, homogenate
The series can be described thus: Motilin receptor binding test (125I motilin, rabbit duodenum protein solution). The note with it: concentration inhibiting 50% of specific binding of 25 pM 125I motilin; rabbit duodenum homogenate, 2 hours at 25° C. How it is done:
Motilin receptor binding activities of compounds of the present invention were tested as follows [Vantrappen et al., Regul.
A protein solution was prepared by homogenizing the duodenum isolated from a killed rabbit in 50 mM Tris after stripping the mucosa. […] The difference between the radioactivity of the protein solution incubated alone and the radioactivity of the protein solution incubated with a large excess of motilin (10^−7 M) was recorded as specific binding of motilin to motilin receptors.

For series [1] the following is noted: amide bond, BOP, 25.0 °C.
The conditions of series [2]: amide bond, 25.0 °C.
Setting [3] is: 14-membered ring, BOP, DMF/pyridine 1:1, 9.9 mM, 2 steps.

Read-outs that look alike come from different tables or passages of the source.

T1 sequence (G1T803 1-400): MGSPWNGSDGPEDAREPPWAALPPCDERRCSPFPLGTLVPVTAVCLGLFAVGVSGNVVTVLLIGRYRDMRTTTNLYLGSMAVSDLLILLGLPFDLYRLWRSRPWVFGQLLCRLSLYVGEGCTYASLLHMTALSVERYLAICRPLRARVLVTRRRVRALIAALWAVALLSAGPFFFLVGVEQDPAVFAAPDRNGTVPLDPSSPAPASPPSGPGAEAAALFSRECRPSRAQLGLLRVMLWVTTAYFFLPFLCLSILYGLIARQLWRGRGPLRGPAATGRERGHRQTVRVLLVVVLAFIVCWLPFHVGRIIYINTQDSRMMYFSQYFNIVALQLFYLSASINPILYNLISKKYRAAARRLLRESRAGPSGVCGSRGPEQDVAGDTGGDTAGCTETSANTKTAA

Usually IC50 stands for the concentration that gives 50% inhibition. The low end stands for higher potency, the high end for lower potency. `CN1CCC[C@H](N(C)C(=O)[C@@H](N)Cc2ccc(F)cc2)C(=O)N[C@@H](Cc2ccc(O)c(C(C)(C)C)c2)C(=O)NCCCC1=O` [Example 9, (2S-(2S,13S))-2-amino-N-(2-(3-tert-butyl-4-hydroxyphenylmethyl)-9,N-dimethyl-1,4,9-triaza-3,8,14-trioxocyclotetradec-13-yl)-3-(4-fluorophenyl)propionamide] gave an IC50 on motilin receptors of 5.3 nM. This counts as single-digit nanomolar.

`CN(C(=O)[C@H](Cc1ccccc1)NC(=O)OCc1ccccc1)[C@H]1CCCCNC(=O)CCNC(=O)[C@H](Cc2ccc(O)c(C(C)(C)C)c2)NC1=O` returned a ring closure, yield of all isomers in series [1] (from CN(C(=O)[C@H](Cc1ccccc1)NC(=O)OCc1ccccc1)[C@@H](CCCCN)C(=O)N[C@@H](Cc1ccc(O)c(C(C)(C)C)c1)C(=O)NCCC(=O)O, DMF, 9.91 mM, 2 steps) of 48%.

In turn, `CC(C)(C)c1cc(C[C@@H]2NC(=O)C(N)CCCCNC(=O)CCNC2=O)ccc1O` (stereo partly shown) showed a ring closure, isolated yield in series [2] (from Z-Lys-Tyr(3-tBu)-bAla-OH?, 14-membered ring, BOP/pyridine, MeCN/pyridine 1:1, 10.2 mM, 3 steps) of 90%.

Compound “(2S-(2S,13S))-2-tert-butoxycarbonylamino-N-(2-(3-tert-butyl-4-hydroxyphenylmethyl)-9-methyl-1,4,9-triaza-3,8,14-trioxocyclotetradec-13-yl)-3-(4-fluorophenyl)-N-methylpropionamide” gave a ring closure, isolated yield in series [2] (setting [3]) of 60%.

For the compound “(2S-(2S,13S))-2-tert-butoxycarbonylamino-N-(2-(3-tert-butyl-4-hydroxyphenylmethyl)-4-methyl-1,4,8-triaza-3,7,14-trioxocyclotetradec-13-yl)-3-(4-fluorophenyl)-N-methylpropionamide”, the ring closure, isolated yield in series [2] (14-membered ring, BOP/pyridine, DMF/pyridine 1:1, 10.3 mM) came out at 60%.

Take `CN(C(=O)[C@H](Cc1ccc(F)cc1)NC(=O)OC(C)(C)C)[C@H]1CCCCNC(=O)CCCNC(=O)[C@H](Cc2ccc(O)c(C(C)(C)C)c2)NC1=O`: the ring closure, yield of all isomers in series [1] (from CN(C(=O)[C@H](Cc1ccc(F)cc1)NC(=O)OC(C)(C)C)[C@@H](CCCCN)C(=O)N[C@@H](Cc1ccc(O)c(C(C)(C)C)c1)C(=O)NCCCC(=O)O, DMF, 10.1 mM, 16.0 h) amounted to 82%.

“(2S-(2S,13S))-2-tert-butoxycarbonylamino-N-(2-(3-tert-butyl-4-hydroxyphenylmethyl)-1-methyl-1,4,8-triaza-3,7,14-trioxocyclotetradec-13-yl)-3-(4-fluorophenyl)-N-methylpropionamide” gave a ring closure, isolated yield in series [2] (14-membered ring, BOP/pyridine, DMF/pyridine 1:1, 10.0 mM, 2 steps) of 36%.

In the case of “(2S-(2S,14S))-2-(tert-butoxycarbonylamino)-N-(2-(3-tert-butyl-4-hydroxyphenylmethyl)-1,4,9-triaza-3,8,15-trioxocyclopentadec-14-yl)-3-(4-fluorophenyl)-N-methylpropionamide”, the ring closure, isolated yield in series [2] (15-membered ring, BOP/pyridine, DMF/pyridine 1:1, 10.1 mM) was 82%.

Compound “(2S-(2S,13S))-2-tert-butoxycarbonylamino-N-(2-(3-tert-butyl-4-hydroxyphenylmethyl)-1,4,8-triaza-3,7,14-trioxocyclotetradec-13-yl)-3-(4-fluorophenyl)-N-methylpropionamide” had a ring closure, isolated yield in series [2] (14-membered ring, BOP/pyridine, DMF/pyridine 1:1, 10.1 mM) of 69%.

In series [2] (14-membered ring, BOP, DMF/pyridine 1:1, 9.9 mM), “(2S-(2S,13S))-N-(8-acetyl-2-(3-tert-butyl-4-hydroxyphenylmethyl)-3,14-dioxo-1,4,8-triazacyclotetradec-13-yl)-2-tert-butoxycarbonylamino-3-(4-fluorophenyl)-N-methylpropionamide” came in with a ring closure, isolated yield of 55%.

With “(2S-(2S,12S))-2-tert-butoxycarbonylamino-N-(2-(3-tert-butyl-4-hydroxyphenylmethyl)-1,4,8-triaza-3,7,13-trioxocyclotridec-12-yl)-3-(4-fluorophenyl)-N-methylpropionamide”, in series [2] (13-membered ring, BOP/pyridine, DMF/pyridine 1:1, 10.75 mM, 2 steps), the ring closure, isolated yield was 60%.

In series [1] (from CNCCC[C@@H](C(=O)N[C@@H](Cc1ccc(O)c(C(C)(C)C)c1)C(=O)NCCCC(=O)O)N(C)C(=O)[C@H](Cc1ccc(F)cc1)NC(=O)OC(C)(C)C, DMF, 9.93 mM, 12.0 h, 2 steps), `CN1CCC[C@H](N(C)C(=O)[C@H](Cc2ccc(F)cc2)NC(=O)OC(C)(C)C)C(=O)N[C@@H](Cc2ccc(O)c(C(C)(C)C)c2)C(=O)NCCCC1=O` came in with a ring closure, yield of all isomers of 60%.

“(2S-(2S,13S))-2-(tert-butoxycarbonylamino)-N-(2-(3-tert-butyl-4-hydroxyphenylmethyl)-8-methyl-1,4, 8-triaza-3,7,14-trioxocyclotetradec-13-yl)-3-(4-fluorophenyl)-N-methylpropionamide” gave a ring closure, isolated yield in series [2] (14-membered ring, BOP/pyridine, DMF/pyridine 1:1, 10.5 mM) of 36%.

On to `CC(C)(C)c1cc(C[C@@H]2NC(=O)[C@@H](N)CCCCNC(=O)CCNC2=O)ccc1O`, for which the ring closure, yield of all isomers in series [1] (from CC(C)(C)OC(=O)CCNC(=O)[C@H](Cc1ccc(O)c(C(C)(C)C)c1)NC(=O)[C@H](CCCCNC(=O)OC(C)(C)C)NC(=O)OCc1ccccc1, acetonitrile, 10.2 mM, 21.0 h, 3 steps) was 90%.

On to `CN1CCCC[C@H](N(C)C(=O)[C@H](Cc2ccc(F)cc2)NC(=O)OC(C)(C)C)C(=O)N[C@@H](Cc2ccc(O)c(C(C)(C)C)c2)C(=O)NCCC1=O`, for which, in series [1] (from CNCCCC[C@@H](C(=O)N[C@@H](Cc1ccc(O)c(C(C)(C)C)c1)C(=O)NCCC(=O)O)N(C)C(=O)[C@H](Cc1ccc(F)cc1)NC(=O)OC(C)(C)C, DMF, 10.5 mM, 16.0 h), the ring closure, yield of all isomers stood at 36%.

In the case of “(2S-(2S,13S))-2-benzyloxycarbonylamino-N-(2-(3-tert-butyl-4-hydroxyphenylmethyl)-1,4,8-triaza-3,7,14-trioxocyclotetradec-13-yl)-3-phenyl-N-methylpropionamide”, in series [2] (setting [3]), the ring closure, isolated yield was 48%.

Compound `CN(C(=O)[C@H](Cc1ccc(F)cc1)NC(=O)OC(C)(C)C)[C@H]1CCCCNC(=O)CCNC(=O)[C@H](Cc2ccc(O)c(C(C)(C)C)c2)NC1=O` returned a ring closure, yield of all isomers in series [1] (from CN(C(=O)[C@H](Cc1ccc(F)cc1)NC(=O)OC(C)(C)C)[C@@H](CCCCN)C(=O)N[C@@H](Cc1ccc(O)c(C(C)(C)C)c1)C(=O)NCCC(=O)O, DMF, 10.1 mM, 18.0 h) of 69%.

With `CC(=O)N1CCCC[C@H](N(C)C(=O)[C@H](Cc2ccc(F)cc2)NC(=O)OC(C)(C)C)C(=O)N[C@@H](Cc2ccc(O)c(C(C)(C)C)c2)C(=O)NCCC1`, in series [1] (from CC(=O)N(CCCN)CCCC[C@@H](C(=O)N[C@@H](Cc1ccc(O)c(C(C)(C)C)c1)C(=O)O)N(C)C(=O)[C@H](Cc1ccc(F)cc1)NC(=O)OC(C)(C)C, DMF, 9.87 mM, 18.0 h), the ring closure, yield of all isomers is 55%.

For the compound “2S-(2S,13S))-N-(8-acetyl-2-(3-tert-butyl-4-hydroxyphenylmethyl)-3,14-dioxo-1,4,8-triazacyclotetradec-13-yl)-2-tert-butoxycarbonylamino-3-(4-fluorophenyl)-N-methylpropionamide”, the ring closure, isolated yield in series [2] (14-membered ring, BOP/pyridine, DMF/pyridine 1:1, 9.9 mM) was determined as 55%.

In series [1] (from CN(C(=O)[C@H](Cc1ccc(F)cc1)NC(=O)OC(C)(C)C)[C@@H](CCCCN)C(=O)N[C@@H](Cc1ccc(O)c(C(C)(C)C)c1)C(=O)NCC(=O)O, DMF, 10.75 mM, 23.0 h, 2 steps), `CN(C(=O)[C@H](Cc1ccc(F)cc1)NC(=O)OC(C)(C)C)[C@H]1CCCCNC(=O)CNC(=O)[C@H](Cc2ccc(O)c(C(C)(C)C)c2)NC1=O` yielded a ring closure, yield of all isomers of 60%.

In turn, `CN(C(=O)[C@H](Cc1ccc(F)cc1)NC(=O)OC(C)(C)C)[C@H]1CCCCNC(=O)CCNC(=O)[C@H](Cc2ccc(O)c(C(C)(C)C)c2)N(C)C1=O` came in with a ring closure, yield of all isomers in series [1] (from CN(C(=O)[C@H](Cc1ccc(F)cc1)NC(=O)OC(C)(C)C)[C@@H](CCCCN)C(=O)N(C)[C@@H](Cc1ccc(O)c(C(C)(C)C)c1)C(=O)NCCC(=O)O, DMF, 10.0 mM, 26.0 h, 2 steps) of 36%.

The compound `CN1CCC(=O)NCCCC[C@H](N(C)C(=O)[C@H](Cc2ccc(F)cc2)NC(=O)OC(C)(C)C)C(=O)N[C@@H](Cc2ccc(O)c(C(C)(C)C)c2)C1=O` registered a ring closure, yield of all isomers in series [1] (from CN(CCC(=O)O)C(=O)[C@H](Cc1ccc(O)c(C(C)(C)C)c1)NC(=O)[C@H](CCCCN)N(C)C(=O)[C@H](Cc1ccc(F)cc1)NC(=O)OC(C)(C)C, DMF, 10.3 mM, 16.0 h) of 60%.

The record behind these values is patent publication US7018981B2, “Cyclic motilin receptor antagonists” (Chugai Seiyaku Kabushiki Kaisha, priority 2000, dated 2006).
